Assay [1] relates to rats with decompensated CHF. The experiment in a line: Pneumoperitoneum (incremental IAP) in rats with decompensated CHF induced by aorto-caval fistula. It counts as in vivo, rat. The conditions noted are these: pretreated 10 mg/kg/day for 4 days. An excerpt:
CHF was induced by surgical creation of aorto-caval fistula (ACF) between the abdominal aorta and the vena cava, as schematically shown in FIG. 1. […] Similar pattern was reported in clinical CHF.
(§1) The abdomen was opened via small incision in the lower third between the xiphoid and pubis and the urinary bladder was catheterized for urine collection. A Veress needle was inserted into the abdominal cavity and connected to the CO2 gas supply to maintain intra-abdominal pressure (IAP) at the desired level using a special insufflator (Aesculap, Tuttlingen, Germany). The muscle and skin layers of the abdominal wall were closed separately by silk sutures in an airtight manner (FIG. 2).
(§2) Male Sprague-Dawley rats were organized into several groups. Normal rats, rats with compensated or decompensated CHF (n=12-13), and rats with MI (n=7) were subjected to IAP of 0 (baseline), 7, 10 or 14 mmHg, over 45-60 min for each pressure, followed by deflation period of 60 min (recovery), as illustrated in Scheme 1. Six additional rats with decompensated CHF and seven additional rats with MI were pretreated with the phosphodiesterase type 5 (PDE5) inhibitor Cialis® (tadalafil; 10 mg/kg/day) for 4 days prior to the experiment. Urine flow rate (V), absolute Na^+ excretion (UNaV), glomerular filtration rate (GFR), renal plasma flow (RPF) and blood pressure were determined throughout the experiments.
In this study, the effects of the phosphodiesterase type 5 (PDE5) inhibitor Cialis® (tadalafil), administered as described in Materials and Methods, on the adverse effects of incremental IAP, simulating pneumoperitoneum, on GFR, RPF, urinary flow rate (V), urinary sodium excretion (UNaV) and urinary cGMP excretion (UcGMP), in rats with decompensated CHF were tested.

The test system of assay [2] is rats with ischemic acute kidney injury. Kind of assay: Experimental acute kidney injury induced by warm renal ischemia of 45 min (renal artery clamping). To be noted: rats pretreated before renal ischemia of 45 min. It counts as in vivo, rat. As to the method: Male Sprague Dawley rats weighing 300-350 gr were housed under standardized conditions for 2-3 days. Following an overnight fast, the animals were anaesthetized with an inactin anesthesia (100 mg/kg, IP) and placed on a controlled heating (thermoregulated) table keeping the body temperature at 37° C. Polyethylene tubes (PE50) were inserted into the right carotid artery for blood pressure monitoring and blood sampling, and into the jugular vein for infusion of 0.9% normal saline (0.9% NaCl) at a 1.5 ml/h rate, as well as 2% inulin and 1% para-aminohippuric acid (PAH) at a rate of 1.5 ml/h, by syringe pumps. Arterial blood pressure was continuously monitored with a pressure transducer connected to the carotid arterial line. Additional two catheters were inserted after a supravesical incision into the bladder for urine collection. In order to minimize dehydration, the abdominal area was covered with saline-soaked gauze. After 2 baseline urine collections, the left renal artery and vein were dissected and the perirenal fat was preserved. […] Urinary samples were analyzed for neutrophil gelatinase-associated lipocalcin (NGAL) and kidney injury molecule 1 (KIM-1), two novel biomarkers of renal damage. […] The levels of NGAL and KIM-1 were determined in urine samples prior to acute kidney injury (AKI) and at various time points following renal artery clamping.

In assay [3] the test system is rats with MI. Kind of assay: Pneumoperitoneum (incremental IAP) in rats with myocardial infarction (LAD occlusion). To be noted: pretreated 10 mg/kg/day for 4 days. It counts as in vivo, rat. As to the method: Rats were anesthetized with a combination of ketamine (87 mg/kg) and xylazine (13 mg/kg), intubated, and mechanically ventilated at a rate of 80-90 cycles per minute with a tidal volume of 1-2 ml/100 gr. MI was induced by the most common method. Specifically, the left anterior descending (LAD) artery was completely and permanently occluded. Consequently, a large area of the left ventricle wall was deprived of its blood supply, and was thus exposed to hypoxia, ischemia, nutrient starvation and other conditions that develop under these circumstances. Seven days after LAD inclusion, the rats were used in the experimental model of pneumoperitoneum described below.
as §1, §2
In this study we tested whether rats with heart failure induced by myocardial infarction (MI) display renal susceptibility to IAP similar to that of rats with CHF induced by the creation of ACF. As expected and shown in FIGS. 9A-9D, rats with MI had lower basal GFR and RPF compared with control animals. […] These adverse effects were more profound in rats with MI as compared with sham controls.

For assay [4], the system named is rats subjected to IAP of 14 mm Hg. The conditions noted are these: rat, in vivo; cited from earlier work.

The source of these data is patent US20130296331A1, “COMPOSITIONS AND METHODS FOR AMELIORATING RENAL DYSFUNCTION INDUCED BY RENAL HYPOPERFUSION OR ACUTE KIDNEY INJURY” (Technion Research and Development Foundation Ltd., priority 2010, published 2013).

In the case of `CN1CC(=O)N2[C@H](c3ccc4c(c3)OCO4)c3[nH]c4ccccc4c3C[C@@H]2C1=O` [Cialis®, (6R-trans)-6-(1,3-benzodioxol-5-yl)-2,3,6,7,12,12a-hexahydro-2-methyl-pyrazino[1′,2′:1,6]pyrido[3,4-b]indole-1,4-dione], in assay [1] (FIG. 7A), the “adverse effects of increased IAP on urinary flow rate (V)” value is reported as “abolished”. In addition, the “adverse effects of increased IAP on urinary sodium excretion (UNaV)” value in assay [1] (FIG. 7B) is “abolished”. Further, the “inhibitory effect of IAP on urinary cGMP excretion (UcGMP V)” value is “prevented” in assay [1] (FIG. 8) and “significantly attenuated” in assay [3] (FIG. 11). Further, the “adverse effects of increased IAP on GFR” value in assay [1] (IAP 7, 10, 14 mmHg, FIGS. 6A-6B) is given as “remarkably attenuated”. Moreover, the “adverse effects of increased IAP on RPF” value in assay [1] (IAP 7, 10, 14 mmHg, FIGS. 6C-6D) is “remarkably attenuated”. In addition, the “urinary excretion of NGAL” value in assay [2] (FIG. 13A) is “significantly attenuated”. Besides, in assay [2] (FIG. 13B), the “urinary excretion of KIM-1” value is on record as “significantly attenuated”. Further, in assay [3] (FIGS. 9A-9B), the “adverse effects of pneumoperitoneum on GFR” value was “substantially attenuated”. The “adverse effects of pneumoperitoneum on RPF” value in assay [3] (FIGS. 9C-9D) was “substantially attenuated”. Also, in assay [3] (IAP 14 mmHg, FIG. 10A), the “adverse effects of pneumoperitoneum on urinary flow rate (V)” value is given as “partially ameliorated”. Further, in assay [3] (IAP 14 mmHg, FIG. 10B), the “adverse effects of pneumoperitoneum on urinary sodium excretion (UnaV)” value is recorded as “partially ameliorated”.

In the case of `O=[N+]([O-])OCC(CO[N+](=O)[O-])O[N+](=O)[O-]` [nitroglycerine], in assay [4], the “IAP-induced renal dysfunction (decreased renal excretory function and hypofiltration)” value is reported as “partially ameliorated”.
